Assay results as given in article PMC4490784, “Compensatory induction of MYC expression by sustained CDK9 inhibition via a BRD4-dependent mechanism” (eLife, 2015).

Legend:
Assay in all cases: KINOMEscan binding assay
PFCDPK1(P.falciparum) = target: T1, PFCDPK1(P.falciparum) (Plasmodium falciparum, UniProt P62344); conditions: 1 µM i-CDK9; read-out: % Retention on Solid Support
T1 construct: purchased DiscoveRx KINOMEscan
Summary of the method: (§1)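 Readout reflects displacement of an active site-directed ligand, scored across more than 400 kinases with i-CDK9 at 1 µM and at 10 µM.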

TAOK2 = target: T2, TAOK2 (Homo sapiens, UniProt Q9UL54); conditions: read-out: % Retention on Solid Support
T2 construct: purchased DiscoveRx KINOMEscan
T2 sequence (Q9UL54 whole entry): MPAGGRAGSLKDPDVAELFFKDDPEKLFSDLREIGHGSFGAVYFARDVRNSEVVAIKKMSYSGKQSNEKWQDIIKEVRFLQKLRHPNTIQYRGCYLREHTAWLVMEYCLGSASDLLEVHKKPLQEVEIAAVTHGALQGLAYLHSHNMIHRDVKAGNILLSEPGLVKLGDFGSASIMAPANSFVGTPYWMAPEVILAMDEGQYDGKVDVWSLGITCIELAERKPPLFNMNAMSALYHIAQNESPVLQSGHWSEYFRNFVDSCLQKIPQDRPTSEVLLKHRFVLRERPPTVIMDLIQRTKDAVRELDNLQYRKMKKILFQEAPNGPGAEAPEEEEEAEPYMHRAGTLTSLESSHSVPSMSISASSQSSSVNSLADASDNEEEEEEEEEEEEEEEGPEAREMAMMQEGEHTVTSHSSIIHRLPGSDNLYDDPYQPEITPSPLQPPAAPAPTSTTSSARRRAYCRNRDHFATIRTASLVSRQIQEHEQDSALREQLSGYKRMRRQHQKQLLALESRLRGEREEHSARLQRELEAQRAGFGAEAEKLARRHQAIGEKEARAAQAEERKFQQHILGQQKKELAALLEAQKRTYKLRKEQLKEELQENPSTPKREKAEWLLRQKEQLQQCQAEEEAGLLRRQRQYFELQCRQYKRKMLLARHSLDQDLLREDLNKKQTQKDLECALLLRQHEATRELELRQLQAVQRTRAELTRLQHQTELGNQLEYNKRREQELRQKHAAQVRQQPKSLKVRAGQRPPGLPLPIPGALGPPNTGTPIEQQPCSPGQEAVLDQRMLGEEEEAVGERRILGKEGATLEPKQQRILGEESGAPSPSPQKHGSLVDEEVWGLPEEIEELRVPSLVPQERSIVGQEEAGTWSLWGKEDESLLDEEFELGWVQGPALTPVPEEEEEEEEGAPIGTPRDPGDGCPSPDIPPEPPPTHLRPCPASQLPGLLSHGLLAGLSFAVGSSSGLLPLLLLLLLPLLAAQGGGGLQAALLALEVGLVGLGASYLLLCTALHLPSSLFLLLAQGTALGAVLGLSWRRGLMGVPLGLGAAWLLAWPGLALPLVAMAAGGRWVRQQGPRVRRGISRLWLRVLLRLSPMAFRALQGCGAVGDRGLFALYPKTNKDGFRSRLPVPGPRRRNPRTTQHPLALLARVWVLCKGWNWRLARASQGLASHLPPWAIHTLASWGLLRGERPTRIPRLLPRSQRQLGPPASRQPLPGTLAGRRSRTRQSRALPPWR
Summary of the method: as §1

ARK5 = target: T3, ARK5 (Homo sapiens, UniProt O60285)
T3 construct: purchased DiscoveRx KINOMEscan
Summary of the method: as §1

RIOK1 = target: T4, RIOK1 (Homo sapiens, UniProt Q9BRS2); conditions: read-out: % Retention on Solid Support
T4 construct: purchased DiscoveRx KINOMEscan
Summary of the method: as §1

AKT3 = target: T5, AKT3 (Homo sapiens, UniProt Q9Y243); conditions: read-out: % Retention on Solid Support
T5 construct: purchased DiscoveRx KINOMEscan
Summary of the method: as §1

NEK9 = target: T6, NEK9 (Homo sapiens, UniProt Q8TD19); conditions: read-out: % Retention on Solid Support
T6 construct: purchased DiscoveRx KINOMEscan
T6 sequence (Q8TD19 whole entry): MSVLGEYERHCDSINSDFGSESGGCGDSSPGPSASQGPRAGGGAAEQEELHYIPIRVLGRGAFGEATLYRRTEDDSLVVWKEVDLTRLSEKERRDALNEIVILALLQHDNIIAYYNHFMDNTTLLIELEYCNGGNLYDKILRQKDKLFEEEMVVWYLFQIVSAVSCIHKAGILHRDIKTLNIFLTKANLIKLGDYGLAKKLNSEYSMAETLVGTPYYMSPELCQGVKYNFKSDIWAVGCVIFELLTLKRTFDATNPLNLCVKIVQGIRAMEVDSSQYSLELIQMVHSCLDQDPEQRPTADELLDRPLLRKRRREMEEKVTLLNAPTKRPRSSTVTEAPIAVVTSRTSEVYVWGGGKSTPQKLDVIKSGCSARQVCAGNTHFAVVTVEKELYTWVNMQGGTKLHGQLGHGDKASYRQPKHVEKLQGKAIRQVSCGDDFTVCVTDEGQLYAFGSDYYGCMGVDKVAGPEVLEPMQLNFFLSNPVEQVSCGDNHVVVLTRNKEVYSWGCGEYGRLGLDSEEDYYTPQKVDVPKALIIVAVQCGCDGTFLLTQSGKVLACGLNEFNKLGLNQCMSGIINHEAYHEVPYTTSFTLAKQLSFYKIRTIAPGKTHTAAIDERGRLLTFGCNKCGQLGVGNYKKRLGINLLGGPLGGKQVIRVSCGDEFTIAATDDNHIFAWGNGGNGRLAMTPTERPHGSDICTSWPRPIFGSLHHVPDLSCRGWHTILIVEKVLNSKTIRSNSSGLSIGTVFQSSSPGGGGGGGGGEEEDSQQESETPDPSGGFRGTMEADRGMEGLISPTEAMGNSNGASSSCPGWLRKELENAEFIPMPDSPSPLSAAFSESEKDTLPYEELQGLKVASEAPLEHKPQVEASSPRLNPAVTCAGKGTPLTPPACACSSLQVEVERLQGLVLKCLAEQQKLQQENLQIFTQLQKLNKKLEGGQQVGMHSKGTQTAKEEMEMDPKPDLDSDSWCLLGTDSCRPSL
Summary of the method: as §1

EPHA8 = target: T7, EPHA8 (Homo sapiens, UniProt P29322); conditions: read-out: % Retention on Solid Support
T7 construct: purchased DiscoveRx KINOMEscan
Summary of the method: as §1

MET(M1250T) = target: T8, MET(M1250T) (Homo sapiens, UniProt P08581, M1250T)
T8 construct: purchased DiscoveRx KINOMEscan
Summary of the method: as §1

PIK4CB = target: T9, PIK4CB (Homo sapiens, UniProt Q9UBF8); conditions: read-out: % Retention on Solid Support
T9 construct: purchased DiscoveRx KINOMEscan
Summary of the method: as §1

PRKCI = target: T10, PRKCI (Homo sapiens, UniProt P41743); conditions: 1 µM i-CDK9; read-out: % Retention on Solid Support
T10 construct: purchased DiscoveRx KINOMEscan
Summary of the method: as §1

SRPK3 = target: T11, SRPK3 (Homo sapiens, UniProt Q9UPE1); conditions: read-out: % Retention on Solid Support
T11 construct: purchased DiscoveRx KINOMEscan
T11 sequence (Q9UPE1 whole entry): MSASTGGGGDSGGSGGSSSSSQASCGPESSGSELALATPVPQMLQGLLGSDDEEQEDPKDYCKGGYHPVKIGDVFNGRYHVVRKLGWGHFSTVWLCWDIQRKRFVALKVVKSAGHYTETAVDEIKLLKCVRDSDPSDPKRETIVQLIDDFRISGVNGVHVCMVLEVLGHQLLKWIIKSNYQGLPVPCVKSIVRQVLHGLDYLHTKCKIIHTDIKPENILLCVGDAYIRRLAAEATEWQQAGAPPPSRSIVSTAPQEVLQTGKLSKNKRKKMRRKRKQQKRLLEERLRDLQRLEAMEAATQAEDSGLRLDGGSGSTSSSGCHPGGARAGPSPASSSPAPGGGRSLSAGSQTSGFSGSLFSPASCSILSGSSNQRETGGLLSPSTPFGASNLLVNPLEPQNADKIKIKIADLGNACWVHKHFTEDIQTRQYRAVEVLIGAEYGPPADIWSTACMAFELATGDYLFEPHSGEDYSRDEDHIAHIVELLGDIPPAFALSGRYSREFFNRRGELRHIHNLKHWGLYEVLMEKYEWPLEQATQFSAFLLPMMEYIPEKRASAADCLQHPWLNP
Summary of the method: as §1

[1] = target: T12, ABL1(E255K)-nonphosphorylated (Homo sapiens, UniProt P00519, E255K); conditions: 10 µM i-CDK9; read-out: % Retention on Solid Support
T12 construct: purchased DiscoveRx KINOMEscan
Summary of the method: as §1

AURKA = target: T13, AURKA (Homo sapiens, UniProt O14965); conditions: read-out: % Retention on Solid Support
T13 construct: purchased DiscoveRx KINOMEscan
T13 sequence (O14965 1-403): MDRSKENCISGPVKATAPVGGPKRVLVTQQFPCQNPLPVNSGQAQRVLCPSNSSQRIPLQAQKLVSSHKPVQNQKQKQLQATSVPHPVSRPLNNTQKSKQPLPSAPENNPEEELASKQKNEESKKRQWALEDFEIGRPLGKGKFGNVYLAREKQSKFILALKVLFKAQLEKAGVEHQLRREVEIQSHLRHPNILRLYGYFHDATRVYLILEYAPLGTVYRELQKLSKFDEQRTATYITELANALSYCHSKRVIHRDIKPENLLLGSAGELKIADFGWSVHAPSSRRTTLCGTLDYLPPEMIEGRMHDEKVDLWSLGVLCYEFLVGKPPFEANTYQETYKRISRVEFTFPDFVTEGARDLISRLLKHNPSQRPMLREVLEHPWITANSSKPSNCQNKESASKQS
Summary of the method: as §1

CSF1R = target: T14, CSF1R (Homo sapiens, UniProt P07333); conditions: read-out: % Retention on Solid Support
T14 construct: purchased DiscoveRx KINOMEscan
T14 sequence (P07333 20-972): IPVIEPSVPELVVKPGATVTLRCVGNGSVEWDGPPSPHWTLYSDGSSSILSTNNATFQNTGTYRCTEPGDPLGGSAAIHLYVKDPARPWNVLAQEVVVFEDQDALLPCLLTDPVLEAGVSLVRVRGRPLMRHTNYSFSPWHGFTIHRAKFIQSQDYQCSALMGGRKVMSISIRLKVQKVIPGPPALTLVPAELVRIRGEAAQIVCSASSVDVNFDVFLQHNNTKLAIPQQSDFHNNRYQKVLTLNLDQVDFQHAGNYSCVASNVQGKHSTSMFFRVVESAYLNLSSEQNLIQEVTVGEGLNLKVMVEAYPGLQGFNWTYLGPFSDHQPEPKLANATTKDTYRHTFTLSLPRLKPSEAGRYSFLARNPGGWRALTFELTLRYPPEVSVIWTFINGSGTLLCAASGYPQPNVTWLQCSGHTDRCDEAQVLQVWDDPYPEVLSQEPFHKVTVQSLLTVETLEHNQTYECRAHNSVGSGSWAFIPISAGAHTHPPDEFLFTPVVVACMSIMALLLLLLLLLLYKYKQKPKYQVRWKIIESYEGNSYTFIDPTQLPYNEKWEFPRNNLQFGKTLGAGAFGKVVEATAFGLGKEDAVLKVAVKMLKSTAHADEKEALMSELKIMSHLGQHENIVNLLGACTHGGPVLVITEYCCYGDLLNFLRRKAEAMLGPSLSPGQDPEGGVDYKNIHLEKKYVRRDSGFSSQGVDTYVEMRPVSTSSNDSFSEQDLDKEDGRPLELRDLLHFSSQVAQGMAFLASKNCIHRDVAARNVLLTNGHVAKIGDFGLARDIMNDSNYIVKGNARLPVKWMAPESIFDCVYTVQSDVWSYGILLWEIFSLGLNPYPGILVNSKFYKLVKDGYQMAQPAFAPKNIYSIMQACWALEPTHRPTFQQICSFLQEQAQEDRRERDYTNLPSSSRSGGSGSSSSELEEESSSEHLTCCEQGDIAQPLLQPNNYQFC
Summary of the method: as §1

FLT3(D835Y) = target: T15, FLT3(D835Y) (Homo sapiens, UniProt P36888, D835Y); conditions: read-out: % Retention on Solid Support
T15 construct: purchased DiscoveRx KINOMEscan
Summary of the method: as §1

SBK1 = target: T16, SBK1 (Homo sapiens, UniProt Q52WX2); conditions: read-out: % Retention on Solid Support
T16 construct: purchased DiscoveRx KINOMEscan
T16 sequence (Q52WX2 whole entry): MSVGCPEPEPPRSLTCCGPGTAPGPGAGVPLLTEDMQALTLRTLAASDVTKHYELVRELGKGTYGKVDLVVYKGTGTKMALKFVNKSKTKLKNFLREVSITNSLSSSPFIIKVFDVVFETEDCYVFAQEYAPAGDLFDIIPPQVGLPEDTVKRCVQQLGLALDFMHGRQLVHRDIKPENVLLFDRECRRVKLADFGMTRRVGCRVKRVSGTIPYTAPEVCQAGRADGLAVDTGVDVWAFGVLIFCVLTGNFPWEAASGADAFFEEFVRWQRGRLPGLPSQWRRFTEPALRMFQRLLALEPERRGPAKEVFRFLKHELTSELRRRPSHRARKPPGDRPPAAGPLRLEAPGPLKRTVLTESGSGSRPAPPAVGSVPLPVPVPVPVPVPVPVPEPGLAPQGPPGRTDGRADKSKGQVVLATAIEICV
Summary of the method: as §1

CDC2L2 = target: T17, CDC2L2 (Homo sapiens, UniProt Q9UQ88); conditions: read-out: % Retention on Solid Support
T17 construct: purchased DiscoveRx KINOMEscan
Summary of the method: as §1

NIM1 = target: T18, NIM1 (Homo sapiens, UniProt Q8IY84); conditions: read-out: % Retention on Solid Support
T18 construct: purchased DiscoveRx KINOMEscan
T18 sequence (Q8IY84 whole entry): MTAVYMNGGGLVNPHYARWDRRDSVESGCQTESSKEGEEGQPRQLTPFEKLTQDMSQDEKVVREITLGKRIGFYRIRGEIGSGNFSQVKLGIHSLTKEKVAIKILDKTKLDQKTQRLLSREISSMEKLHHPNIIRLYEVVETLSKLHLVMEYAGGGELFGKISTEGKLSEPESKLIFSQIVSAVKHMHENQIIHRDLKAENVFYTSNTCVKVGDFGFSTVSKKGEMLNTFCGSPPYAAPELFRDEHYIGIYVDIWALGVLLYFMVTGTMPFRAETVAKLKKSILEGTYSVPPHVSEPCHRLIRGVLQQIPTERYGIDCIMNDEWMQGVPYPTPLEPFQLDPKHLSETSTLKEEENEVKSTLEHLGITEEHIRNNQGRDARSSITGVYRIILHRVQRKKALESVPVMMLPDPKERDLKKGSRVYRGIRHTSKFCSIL
Summary of the method: as §1

CSK = target: T19, CSK (Homo sapiens, UniProt P41240)
T19 construct: purchased DiscoveRx KINOMEscan
T19 sequence (P41240 whole entry): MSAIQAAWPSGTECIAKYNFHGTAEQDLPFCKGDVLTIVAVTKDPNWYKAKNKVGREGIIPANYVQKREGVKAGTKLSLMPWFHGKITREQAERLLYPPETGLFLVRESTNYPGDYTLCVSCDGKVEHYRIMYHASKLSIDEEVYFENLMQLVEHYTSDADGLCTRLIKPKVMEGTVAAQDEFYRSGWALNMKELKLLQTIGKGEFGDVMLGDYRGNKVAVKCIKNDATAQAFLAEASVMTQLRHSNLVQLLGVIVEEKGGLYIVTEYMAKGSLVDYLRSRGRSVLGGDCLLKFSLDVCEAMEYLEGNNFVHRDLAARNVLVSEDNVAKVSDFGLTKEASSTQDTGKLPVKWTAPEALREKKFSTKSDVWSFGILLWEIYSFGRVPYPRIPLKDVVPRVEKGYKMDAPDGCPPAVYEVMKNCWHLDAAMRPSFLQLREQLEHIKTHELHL
Summary of the method: as §1

PIK3CB = target: T20, PIK3CB (Homo sapiens, UniProt P42338); conditions: read-out: % Retention on Solid Support
T20 construct: purchased DiscoveRx KINOMEscan
Summary of the method: as §1

MAP3K3 = target: T21, MAP3K3 (Homo sapiens, UniProt Q99759); conditions: read-out: % Retention on Solid Support
T21 construct: purchased DiscoveRx KINOMEscan
Summary of the method: as §1

`N[C@H]1CC[C@H](Nc2cc(-c3cccc(NCc4cccc(F)c4)n3)c(Cl)cn2)CC1` [i-CDK9, N2′-(trans-4-aminocyclohexyl)-5′-chloro-N6-(3-fluorobenzyl)-2,4′-bipyridine-2′,6-diamine] was tested, and the remaining binding at 1 µM (PFCDPK1(P.falciparum)) was 100%, the remaining binding at 1 µM (TAOK2; 1 µM i-CDK9) was 82% and the remaining binding at 10 µM (TAOK2; 10 µM i-CDK9) was 5.8%. The “% Retention on Solid Support” value (ARK5; 1 µM i-CDK9) was 72%, the “% Retention on Solid Support” value (ARK5; 10 µM i-CDK9) was 100% and the remaining binding at 1 µM (RIOK1; 1 µM i-CDK9) was 100%. For the same compound, the remaining binding at 10 µM (RIOK1; 10 µM i-CDK9) was 57%, the remaining binding at 1 µM (AKT3; 1 µM i-CDK9) was 72% and the remaining binding at 10 µM (AKT3; 10 µM i-CDK9) was 87%. The remaining binding at 1 µM (NEK9; 1 µM i-CDK9) was 100%, the remaining binding at 10 µM (NEK9; 10 µM i-CDK9) was 100% and the remaining binding at 1 µM (EPHA8; 1 µM i-CDK9) was 100%. For the same compound, the remaining binding at 10 µM (EPHA8; 10 µM i-CDK9) was 100%, the “% Retention on Solid Support” value (MET(M1250T); 1 µM i-CDK9) was 86% and the “% Retention on Solid Support” value (MET(M1250T); 10 µM i-CDK9) was 100%. The remaining binding at 1 µM (PIK4CB; 1 µM i-CDK9) was 29%, the remaining binding at 10 µM (PIK4CB; 10 µM i-CDK9) was 84% and the remaining binding at 1 µM (PRKCI) was 100%. For the same compound, the remaining binding at 1 µM (SRPK3; 1 µM i-CDK9) was 100%, the remaining binding at 10 µM (SRPK3; 10 µM i-CDK9) was 100% and the remaining binding at 10 µM [1] was 100%. For the same compound, the remaining binding at 1 µM (AURKA; 1 µM i-CDK9) was 92%, the remaining binding at 10 µM (AURKA; 10 µM i-CDK9) was 97% and the remaining binding at 1 µM (CSF1R; 1 µM i-CDK9) was 59%. The remaining binding at 10 µM (CSF1R; 10 µM i-CDK9) was 100%, the remaining binding at 1 µM (FLT3(D835Y); 1 µM i-CDK9) was 100% and the remaining binding at 10 µM (FLT3(D835Y); 10 µM i-CDK9) was 68%. For the same compound, the remaining binding at 1 µM (SBK1; 1 µM i-CDK9) was 100%, the remaining binding at 10 µM (SBK1; 10 µM i-CDK9) was 100% and the remaining binding at 1 µM (CDC2L2; 1 µM i-CDK9) was 100%. The remaining binding at 10 µM (CDC2L2; 10 µM i-CDK9) was 33%, the remaining binding at 1 µM (NIM1; 1 µM i-CDK9) was 100% and the remaining binding at 10 µM (NIM1; 10 µM i-CDK9) was 100%. The “% Retention on Solid Support” value (CSK; 1 µM i-CDK9) was 100%, the “% Retention on Solid Support” value (CSK; 10 µM i-CDK9) was 100% and the remaining binding at 1 µM (PIK3CB; 1 µM i-CDK9) was 68%. For the same compound, the remaining binding at 10 µM (PIK3CB; 10 µM i-CDK9) was 84%, the remaining binding at 1 µM (MAP3K3; 1 µM i-CDK9) was 100% and the remaining binding at 10 µM (MAP3K3; 10 µM i-CDK9) was 93%.
